Test results published in patent US20080279957A1, “Immunomodulating compositions from bile” (Lorus Therapeutics Inc., priority 2000, published 2008).
Several values for one entry are separate records, joined by “and”; a condition that tells them apart may be missing. Equal entries are not always repeated.

System: human PBMN
Assay: LPS-induced release of TNF by PBMN, LPS plus composition or fractions (Example 9)
Assay type: cell-based
Description: In the studies of TNF, whole blood was drawn from 5 healthy subjects into heparinized Vacutainer tubes. Peripheral blood mononuclear cells (PBMNs) were isolated by gradient centrifugation on Ficoll-Hypaque (Pharmacia). The PBMN were washed twice with phosphate buffered saline (PBS), counted and resuspended in RPMI 1640 culture medium (Gibco Labs) at a concentration of 10^6 cells/0.5 ml. These cells were cultured in 24 well, flat-bottomed tissue culture plates (Falcon, Becton, Dickinson). […] The total volume was then made up to 1 ml/well with RPMI. […] The cells were cultured for 2, 6, 24, 48 and 72 hours at 37° C. in a humidified 5% CO2 incubator. At the end of each incubation period, the cells were harvested and cell free culture fluids were obtained by centrifugation at 9000 rpm for 10 minutes. The samples were then stored at −70° C. until ELISA for cytokines was carried out (within 2 weeks).
The effect of different volumes of the compositions of the invention in inhibiting LPS stimulated release of TNF was examined.
This separation technique is used for small polar substances. […] The precipitate and the soluble fraction were separated. Both the precipitate and soluble fraction were taken to dryness by lyophilization. The precipitate and soluble fraction were reconstituted in aqueous solutions and both analyzed by RP-HPLC and tested for TNF-α releasing activity.
In the next series of experiments, the activity of the precipitate and supernatants were evaluated after their separation by C18 RP-HPLC. The precipitate and supernatant were collected as 2 pools from RP-HPLC: 2 to 21 min and 21 to 46 min.

[1] = LPS 50 ng, first line printed LPS (1) (Table 31)
[2] = LPS 50 ng, second line printed LPS (1) (Table 31)

Question: Lipopolysaccharide [LPS] was tested. Which “TNF Released” value (1X 199 Medium, LPS 10 ng/10 μl, 1 patient) did it give?
Answer: 124 pg/mL

Question: And the “TNF Released” value (1X 199 Medium, LPS 50 ng/10 μl, 1 patient)?
Answer: 155 pg/mL

Question: What about the “TNF Released” value (1X 199 Medium, LPS 100 ng/10 μl, 1 patient) of the same substance?
Answer: 147 pg/mL

Question: And the “TNF Released” value (1X 199 Medium, LPS 200 ng/10 μl, 1 patient)?
Answer: 213 pg/mL

Question: And the “TNF Released” value (1X 199 Medium, LPS 1000 ng/10 μl, 1 patient)?
Answer: 404 pg/mL

Question: What about the “TNF Released” value (1640 RPMI Medium, LPS 50 ng/10 μl, 1 patient) of the same substance?
Answer: 356 pg/mL

Question: And the “TNF Released” value (1640 RPMI Medium, LPS 100 ng/10 μl, 1 patient)?
Answer: 323 pg/mL

Question: What about the “TNF Released” value (1640 RPMI Medium, LPS 200 ng/10 μl, 1 patient) of the same substance?
Answer: 455 pg/mL

Question: What about the “TNF Released” value (1640 RPMI Medium, LPS 1000 ng/10 μl, 1 patient) of the same substance?
Answer: 558 pg/mL

Question: And the “TNF Released by LPS (50 ng/ml)” value (2 hr)?
Answer: 697 pg/mL and 697 ± 94 pg/mL

Question: What about the “TNF Released by LPS (50 ng/ml)” value (24 hr) of the same substance?
Answer: 800 ± 222 pg/mL

Question: What about the “TNF Released by LPS (50 ng/ml)” value (48 hr) of the same substance?
Answer: 170 ± 149 pg/mL

Question: And the “TNF Released by LPS (50 ng/ml)” value (72 hr)?
Answer: 132 ± 147 pg/mL

Question: And the “TNF Released -LPS” value (LPS 50 ng (Table 29))?
Answer: 0 pg/mL

Question: And the “TNF Released -LPS” value (LPS 50 ng (Table 30))?
Answer: 0 pg/mL

Question: And the “TNF Released −LPS” value (LPS 50 ng/10 μl (Table 24))?
Answer: 0 pg/mL

Question: What about the “TNF Released -LPS” value (LPS 50 ng/10 μl (Table 25)) of the same substance?
Answer: 0 pg/mL

Question: What about the “TNF Released -LPS” value (LPS 50 ng/10 μl (Table 26)) of the same substance?
Answer: 0 pg/mL

Question: And the “TNF Released Total” value (LPS 50 ng/10 μl, 1X 199 Medium, 2 patients (Table 26))?
Answer: 136 ± 38 pg/mL

Question: And the “TNF Released Total” value (LPS 50 ng/10 μl, 1X 199 Medium, 5 patients (Table 24))?
Answer: 161 ± 50 pg/mL

Question: And the “TNF Released Total” value (LPS 50 ng/10 μl, 199 Medium, 2 patients (Table 25))?
Answer: 194 ± 93 pg/mL

Question: What about the “TNF Released Total” value (LPS 50 ng, 199 Medium, 5 patients (Table 29)) of the same substance?
Answer: 322 ± 115 pg/mL

Question: And the “TNF Released Total” value (LPS 50 ng, 199 Medium, 5 patients (Table 30))?
Answer: 99 ± 43 pg/mL

Question: And the “TNF Released -LPS” value [1]?
Answer: 0 pg/mL

Question: What about the “TNF Released Total” value [1] of the same substance?
Answer: 136 ± 62 pg/mL

Question: And the “TNF Released -LPS” value [2]?
Answer: 0 pg/mL

Question: And the “TNF Released Total” value [2]?
Answer: 81 ± 25 pg/mL

Question: What about the TNF Released (LPS (50 ng/ml) alone, Table 10) of the same substance?
Answer: 915 ± 763

Question: What about the “TNF Released −LPS” value (absence of Polymyxin, 200 μl, 5 patients (Table 22)) of the same substance?
Answer: 0 pg/mL

Question: What about the “TNF Released Total” value (absence of Polymyxin, composition and fractions 200 μl, LPS 50 ng/10 μl, 5 patients (Table 22)) of the same substance?
Answer: 219 pg/mL

Question: What about the “TNF Released −LPS” value (absence of Polymyxin, footnote 200 μl, 3 patients (Table 23)) of the same substance?
Answer: 0 pg/mL

Question: What about the “TNF Released Total” value (absence of Polymyxin, footnote: composition and fractions 200 μl, LPS 50 ng/10 μl, 3 patients (Table 23)) of the same substance?
Answer: 195 ± 72 pg/mL

Question: What about the “TNF Released −LPS” value (no additive, LPS 50 ng/10 μl, composition 200 μl (Table 19)) of the same substance?
Answer: 0 pg/mL

Question: What about the “TNF Released Total” value (no additive, LPS 50 ng/10 μl, composition 200 μl, 3 patients (Table 19)) of the same substance?
Answer: 517 pg/mL and 517 ± 118 pg/mL
